Source: article PMC8222254, “Self-assembly of an anion receptor with metal-dependent kinase inhibition and potent in vitro anti-cancer properties” (Nature Communications, 2021)

Legend:
[1] = UV-Vis study of hydrolysis of 4-nitrophenyl phosphate; details: HEPES pH 7.4 / DMSO, blank 0.0129
Procedure: UV–Vis studies were carried out on a Cary 60 UV–Vis spectrophotometer with Thermo cycler attachment and the wavelength range of 800–250 nm was scanned every hour for 43 h whilst the solution was heated at a constant temperature of 37 °C. Progress of hydrolysation of 4-nitrophenyl phosphate to 4-nitrophenol was measured by monitoring the increase in absorption at the wavelength of 400 nm (typical for 4-nitrophenol). HEPES buffer was prepared at pH 7.4. Solutions were prepared by dissolving the ligand L (3.1 mg, 0.005 mmol) and the relevant metal salt (1.5 equivalents with respect to ligand) in DMSO (5 mL). 4-nitrophenyl phosphate (18.6 mg, 0.050 mmol) was dissolved in HEPES buffer (~10 mL, 60 mmol). These solutions were then combined and made up volumetrically to 50 mL with HEPES buffer. Where required Bu4NH2PO4 (0.5 equivalents with respect to ligand) was added to the HEPES buffer.
5. UV-Vis studies of the hydrolysis of disodium 4-nitrophenylphosphate.
UV-Vis studies were carried out on a Cary 60 UV-Vis spectrophotometer with Thermo cycler attachment and the wavelength range of 800 – 250 nm was scanned every hour for 43 hours whilst the solution was heated at a constant temperature of 37 °C. Progress of hydrolysation of 4-nitrophenyl phosphate to 4-nitrophenol was measured by monitoring the increase in absorption at the wavelength of 400 nm (typical for 4-nitrophenol). HEPES buffer was prepared at pH 7.4.
Solutions were prepared by dissolving the ligand L (3.1 mg, 0.005 mmol) and the relevant metal salt (1.5 equiv w.r.t. ligand) in DMSO (5 mL). 4 -nitrophenyl phosphate (18.6 mg, 0.050 mmol) was dissolved in HEPES buffer (~10 mL , 60 mmol) These solutions were then combined and made up volumetrically to 50 mL with HEPES buffer.
(1.5 equiv w.r.t. ligand) in DMSO (5 mL). Tetrabutylammonium phosphate (0.84 mg, 0.0025 mmol) was dissolved in HEPES buffer (~1 mL, 60 mmol) and these solutions were combined. […]

HCT116 p53-/- = assay: Confocal imaging of autophagic cells (CYTO-ID); type: cell-based, human; details: 3.125 µM, 40 h
Procedure: Cells were seeded in Lumox chamber slides (8-well, Sarstedt) at a density of 1.25 × 10^4 cells/well (ARPE-19) or 5.625 × 10^4 cells/well (HCT116 p53^−/− and HCT116 p53^+/+). 24 h after seeding, cells were treated with 3.125 μM of [L2Cu3]^6+, [L2Zn3]^6+, [L2Mn3]^6+, or vehicle control for 40 h before removal and addition of CYTO-ID Green autophagic dye (1:500 dilution, Enzo Life Sciences) and Hoechst 3342 nuclear counter stain for 30 min at 37 °C. Media was then replaced before imaging using a Zeiss LSM880 confocal laser scanning microscope.

[2] = biological target: T1, recombinant human AMPK (α1β2γ1) (Homo sapiens, UniProt Q13131); assay: Substrate competition assay (ADP-Glo Kinase Assay); type: biochemical
T1 construct: purchased Promega

[3] = biological target: recombinant human AMPK (pT172 AMPKα1, pS108 AMPKβ1) (Homo sapiens, UniProt Q13131); assay: In vitro phosphatase assay with recombinant kinase, immunoblotting; type: biochemical; details: 50 μM complex, 4 h, with ATP
Procedure: 800 ng of purified recombinant human AMPK (α1β2γ1) or Src kinase (MRC PPU, International Centre for Kinase Profiling, University of Dundee) was incubated with 50 μM [L2Cu3]^6+, [L2Zn3]^6+, or vehicle control in 50 mM Tris HCl pH 7.5 containing 50 μM ATP for 4 h at 37 °C. For [L2Zn3]^6+ time course and concentration titration experiments, 800 ng recombinant human AMPK was used (α1β2γ1 AMPK isoform for pT172 AMPKα1 detection or α2β1γ1 AMPK isoform for pS108 AMPKβ1 detection). For evaluation of ATP dependency and influence of AMP, 50 µM ATP was replaced with 50 µM AMP or omitted. Reactions were stopped by addition of Laemmli’s buffer (Biorad) to 1x and heating at 95 °C for 5 min before analysis by SDS PAGE and immunoblotting for detection of specific phosphorylated amino acids of AMPK and Src proteins.
Protein lysates and recombinant proteins were resolved on 15% SDS polyacrylamide gels. Proteins were electroblotted onto nitrocellulose membrane by wet transfer in 1xTris Glycine buffer (Biorad) at 35 mA overnight at room temperature. After blocking of membranes, these were incubated with primary antibody overnight at 4 °C before addition of rabbit or mouse secondary antibody (HRP-conjugated; 1:5000, Dako P0448 or P0260) for 1 h at room temperature and development of blots by enhanced chemiluminescence. Primary antibodies were: anti-Src (total) (Cell Signalling Technology #2123 1:1000), anti-phosphorylated Src (Y527) (Cell Signalling Technology #21055 1:1000), anti-phosphorylated Src (Y416) (Cell Signalling Technology #69435 1:1000), anti-AMPKα (total) (Cell Signalling Technology #2532 1:1000), anti-phosphorylated AMPKα (T172) (Cell Signalling Technology #2535 1:1000), anti-AMPKβ1 (total) (Cell Signalling Technology #4150 1:1000), anti-phosphorylated AMPKβ1 (S108) (abcam ab156890 1:500), anti-phospho-Tyr (pan) (Cell Signalling Technology #8954 1:2000), anti-p53 (Santa Cruz, DO-1 clone, 1:1000,), anti-phosphorylated LDH-A (Y10) (Cell Signalling Technology #8176 1:1000), anti-LDH-A/B (total) (abcam ab134187 1:5000), anti-β-actin (Merck MAB1501, 1:40,000). Quantification of signals was performed by densitometry using Image J software. Uncropped and unprocessed scans are provided in the Source Data file.

T1 sequence (Q13131 whole entry): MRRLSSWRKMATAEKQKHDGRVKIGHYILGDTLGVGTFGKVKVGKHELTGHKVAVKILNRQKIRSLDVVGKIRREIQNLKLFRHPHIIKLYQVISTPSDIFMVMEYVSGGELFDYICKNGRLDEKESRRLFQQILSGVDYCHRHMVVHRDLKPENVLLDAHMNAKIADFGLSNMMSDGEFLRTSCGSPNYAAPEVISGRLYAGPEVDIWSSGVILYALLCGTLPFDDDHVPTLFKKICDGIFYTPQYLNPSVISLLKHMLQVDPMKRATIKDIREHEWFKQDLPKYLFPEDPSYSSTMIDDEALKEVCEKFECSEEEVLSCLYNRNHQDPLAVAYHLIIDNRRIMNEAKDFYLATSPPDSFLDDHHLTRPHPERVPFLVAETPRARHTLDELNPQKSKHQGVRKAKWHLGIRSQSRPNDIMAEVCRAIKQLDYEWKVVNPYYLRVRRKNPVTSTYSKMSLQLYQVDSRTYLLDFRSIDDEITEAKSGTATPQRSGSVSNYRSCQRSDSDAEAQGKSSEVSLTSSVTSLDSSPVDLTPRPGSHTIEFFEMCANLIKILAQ
T1 sequence (O43741 whole entry partner): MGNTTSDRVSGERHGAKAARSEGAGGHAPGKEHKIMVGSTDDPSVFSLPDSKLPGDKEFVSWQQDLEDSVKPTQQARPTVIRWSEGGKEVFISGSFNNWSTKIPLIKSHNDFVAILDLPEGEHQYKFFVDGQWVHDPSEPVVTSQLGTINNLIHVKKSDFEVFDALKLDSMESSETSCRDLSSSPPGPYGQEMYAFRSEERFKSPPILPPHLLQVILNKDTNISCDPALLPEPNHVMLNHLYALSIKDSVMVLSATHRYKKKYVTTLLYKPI
T1 sequence (P54619 whole entry partner): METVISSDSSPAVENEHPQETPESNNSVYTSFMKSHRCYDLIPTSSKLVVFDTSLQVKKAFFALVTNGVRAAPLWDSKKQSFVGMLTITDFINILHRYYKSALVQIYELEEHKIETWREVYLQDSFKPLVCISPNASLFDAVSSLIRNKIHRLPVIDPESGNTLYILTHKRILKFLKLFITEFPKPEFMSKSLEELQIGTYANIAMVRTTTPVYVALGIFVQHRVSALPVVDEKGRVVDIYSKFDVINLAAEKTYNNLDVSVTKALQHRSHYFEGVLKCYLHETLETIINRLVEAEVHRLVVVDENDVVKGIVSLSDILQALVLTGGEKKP
Chain of recombinant human AMPK (pT172 AMPKα1, pS108 AMPKβ1) (Q13131 whole entry, canonical isoform): as the sequence (Q13131 whole entry) above
Chain of recombinant human AMPK (pT172 AMPKα1, pS108 AMPKβ1) (O43741 whole entry partner, canonical isoform): as the sequence (O43741 whole entry partner) above
Chain of recombinant human AMPK (pT172 AMPKα1, pS108 AMPKβ1) (P54619 whole entry partner, canonical isoform): as the sequence (P54619 whole entry partner) above

Row | Structure (SMILES) | Concentration of 4-nitrophenol after 24 hours at 37°C [1] [mM] | induction of vacuoles / autophagy (CYTO-ID) (HCT116 p53-/-) | induction of vacuoles / autophagy (CYTO-ID) (HCT116 p53-/-; listed as Mn^2+ complex) | %AMPK Activity Remaining, Mean (data for the bars) ([2]; Substrate 0.5 mg/ml as printed) [%] | %AMPK Activity Remaining, Mean (data for the bars) ([2]; Substrate 20 mg/ml as printed) [%] | %AMPK Activity Remaining, Mean (data for the bars) ([2]; Substrate 200 mg/ml as printed) [%] | %AMPK Activity Remaining, Mean (data for the bars) ([2]; Substrate 500 mg/ml as printed) [%] | T172P levels of AMPKα detectable by immunoblotting [3] | induction of vacuoles / autophagy (CYTO-ID) (HCT116 p53-/-; listed as [L2Cu3]^6+)
1 | CC(=O)[O-].CC(=O)[O-].CC(=O)[O-].O=P([O-])([O-])[O-].[Zn+2].[Zn+2].[Zn+2].c1ccc(-c2csc(NCCN(CCNc3nc(-c4ccccn4)cs3)CCNc3nc(-c4ccccn4)cs3)n2)nc1.c1ccc(-c2csc(NCCN(CCNc3nc(-c4ccccn4)cs3)CCNc3nc(-c4ccccn4)cs3)n2)nc1 [[L2Zn3(PO4)]3+] | 0.0164 | – | – | – | – | – | – | – | –
2 | [Mn+2].[Mn+2].[Mn+2].c1ccc(-c2csc(NCCN(CCNc3nc(-c4ccccn4)cs3)CCNc3nc(-c4ccccn4)cs3)n2)nc1.c1ccc(-c2csc(NCCN(CCNc3nc(-c4ccccn4)cs3)CCNc3nc(-c4ccccn4)cs3)n2)nc1 [[L2Mn3]6+] | 0.1185 | most pronounced | also induced autophagy | – | – | – | – | – | –
3 | CC(=O)[O-].CC(=O)[O-].CC(=O)[O-].CC(=O)[O-].CC(=O)[O-].CC(=O)[O-].[Zn+2].[Zn+2].[Zn+2].c1ccc(-c2csc(NCCN(CCNc3nc(-c4ccccn4)cs3)CCNc3nc(-c4ccccn4)cs3)n2)nc1.c1ccc(-c2csc(NCCN(CCNc3nc(-c4ccccn4)cs3)CCNc3nc(-c4ccccn4)cs3)n2)nc1 [[L2Zn3]6+] | 0.0361 | induced the appearance of vacuoles | – | 42.90 | 39.40 | 43.70 | 35.80 | significantly reduced | –
4 | [Cu+2].[Cu+2].[Cu+2].c1ccc(-c2csc(NCCN(CCNc3nc(-c4ccccn4)cs3)CCNc3nc(-c4ccccn4)cs3)n2)nc1.c1ccc(-c2csc(NCCN(CCNc3nc(-c4ccccn4)cs3)CCNc3nc(-c4ccccn4)cs3)n2)nc1 [[L2Cu3]6+] | – | no or little autophagy | – | 34.60 | 17.00 | 25.40 | 17.20 | significantly reduced | did not
